Results on nine compounds are retold here after the Kinase Knowledgebase extract (Sharma et al. 2016).

Experiment [1] relates to MAPK14 (mouse). The experiment can be described thus: Assessment of MAPK14 Kinase Activity in RAW 264.7 Cells.
The target of experiment [2] is MAPK14 (human) (UniProt Q16539). The experiment is described as follows: Inhibition of MAPK14 Kinase Activity.
Sequence of MAPK14 (human) (Q16539 whole entry, looked up): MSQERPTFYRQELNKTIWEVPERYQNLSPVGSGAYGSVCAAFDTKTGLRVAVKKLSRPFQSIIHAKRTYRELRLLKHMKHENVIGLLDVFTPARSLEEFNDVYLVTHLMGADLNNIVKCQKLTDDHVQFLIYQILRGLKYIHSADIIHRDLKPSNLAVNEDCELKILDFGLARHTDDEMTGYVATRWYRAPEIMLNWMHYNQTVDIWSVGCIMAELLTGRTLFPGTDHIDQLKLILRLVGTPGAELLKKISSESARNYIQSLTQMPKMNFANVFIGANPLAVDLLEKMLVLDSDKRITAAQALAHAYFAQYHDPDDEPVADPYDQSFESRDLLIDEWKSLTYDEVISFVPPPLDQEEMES

As a reminder, the IC50 is the concentration that inhibits the measured activity by half. A low value points to greater potency in that assay. As to `CC(C)Cn1c(N)nc2ccc(-c3[nH]c(C(C)(C)C)nc3-c3ccc(F)cc3F)nc21`, the IC50 in experiment [1] was 41.8 nM. That is a double-digit nanomolar value.

For `CC(C)Cn1c(N)nc2ccc(-c3[nH]c(C(C)(C)C)nc3-c3ccccc3)nc21`, the IC50 in experiment [2] was determined as 5.1 nM; in experiment [1] it was 66.4 nM.

With `CC(C)(C)Cn1c(N)nc2ccc(-c3[nH]c(C(C)(C)C)nc3-c3ccc(F)cc3)nc21`, the IC50 was found to be 7 nM in experiment [2] and 34.3 nM in experiment [1].

`CC(C)(C)Cn1c(N)nc2ccc(-c3[nH]c(-c4c(F)cccc4F)nc3-c3ccc(F)cc3)nc21` registered an IC50 in experiment [2] of 7.2 nM.

`CC(C)(C)Cn1c(N)nc2ccc(-c3[nH]c(-c4c(F)cccc4Cl)nc3-c3ccccc3)nc21` came in with an IC50 in experiment [1] of 39 nM.

On to `CC(C)Cn1c(N)nc2ccc(-c3[nH]c(-c4c(Cl)cccc4Cl)nc3-c3ccc(F)cc3F)nc21`, for which the IC50 in experiment [1] amounted to 31.2 nM. The IC50 values of the last two compounds are within 1.5-fold of each other.

As to `CC(C)Cn1c(N)nc2ccc(-c3[nH]c(-c4c(Cl)cccc4Cl)nc3-c3ccccc3)nc21`, the IC50 in experiment [2] is 3.7 nM; in experiment [1] it was 64.7 nM.

As for `CC(C)(C)Cn1c(N)nc2ccc(-c3[nH]c(C(C)(C)C)nc3-c3ccc(F)cc3F)nc21`, the IC50 in experiment [1] came to 20.7 nM. In other words, the double-digit nanomolar range.

With `CC(C)(C)Cn1c(N)nc2ccc(-c3[nH]c(-c4c(Cl)cccc4Cl)nc3-c3ccc(F)cc3)nc21`, the IC50 in experiment [2] worked out at 3.6 nM; in experiment [1], 23 nM.
